The values below come from the NIST ThermoML archive (doi:10.1021/acs.jced.7b00288).

± gives the expanded uncertainty stated by the source.

Series [1] is described as follows: Molar enthalpy of transition or fusion. The note with it: Crystal; DSC.
For series [2] the following is noted: Crystal; DTA.

For `Cc1ccc(NC(=O)C(C)Cl)cc1` (configuration not stated) [2-chloro-N-(4-methylphenyl)propanamide], the “Molar enthalpy of transition or fusion” value in series [1] was 26.8 ± 0.86 kJ/mol. Further, the Normal melting temperature in series [2] was found to be 121.68 ± 0.43 °C.
